PMC3303072 (Cell Biology and Toxicology, 2012)
Like-named read-outs stand apart in the source and are kept apart here.

What was measured:
HepG2 cells [1] = assay type: cell-based, human; conditions: control (DMSO) vs induced, 24 h; for Number of differentially expressed probes, Down: fold change <-2, 1,250 probes; for Number of differentially expressed probes, Up: fold change >2, 1,250 probes; for Number of differentially expressed probes, Either: fold change >2 or <-2, 1,250 probes
HepaRG cells [2] = assay type: cell-based, human; conditions: control (DMSO) vs induced, 24 h; for Number of differentially expressed probes, Down: fold change <-2, 1,250 probes; for Number of differentially expressed probes, Up: fold change >2, 1,250 probes; for Number of differentially expressed probes, Either: fold change >2 or <-2, 1,250 probes
[3] = system: primary human hepatocytes; assay type: cell-based; conditions: control (DMSO) vs induced, 24 h, 1,250 probes; for Number of differentially expressed probes, Down: fold change <-2; for Number of differentially expressed probes, Up: fold change >2; for Number of differentially expressed probes, Either: fold change >2 or <-2
CYP1A2 = conditions: human
CYP3A4 = conditions: human
in vitro [4] = conditions: human, Cytotoxicity class by LC50
HepG2 cells [5] = conditions: xCELLigence cell index, LC50 after 48 and 72 h
HepaRG cells [6] = conditions: xCELLigence cell index, LC50 after 48 and 72 h
[7] = system: cryopreserved human hepatocytes; conditions: for Cytotoxicity class by LC50: cryopreserved HH (3 donors), xCELLigence cell index, LC50 after 48 and 72 h; for Cytotoxicity (in words): cryopreserved HH compared with HepG2 and HepaRG, xCELLigence
[8] = read-out: Cmax (the maximum concentration of a drug in the blood after dosing); in vivo studies; cited from earlier work
[9] = 100 mM stock in 100% DMSO; a 50 mM stock was prepared instead
in vitro [10] = conditions: human, Cytotoxicity class by LC50; remark: listed apart in the source
in vitro [11] = conditions: human, Cytotoxicity class by LC50; remark: listed apart in the source

O=c1cc(-c2ccccc2)oc2ccc3ccccc3c12 [BNF, beta-naphthoflavone]
Number of differentially expressed probes, Down (HepG2 cells [1]): 61
Number of differentially expressed probes, Up (HepG2 cells [1]): 31
Number of differentially expressed probes, Either (HepG2 cells [1]): 92
Number of differentially expressed probes, Down (HepaRG cells [2]): 25
Number of differentially expressed probes, Up (HepaRG cells [2]): 106
Number of differentially expressed probes, Either (HepaRG cells [2]): 131
Number of differentially expressed probes, Down ([3]; HH1): 50
Number of differentially expressed probes, Up ([3]; HH1): 74
Number of differentially expressed probes, Either ([3]; HH1): 124
Number of differentially expressed probes, Down ([3]; HH2): 81
Number of differentially expressed probes, Up ([3]; HH2): 64
Number of differentially expressed probes, Either ([3]; HH2): 145
Number of differentially expressed probes, Down ([3]; HH3): 35
Number of differentially expressed probes, Up ([3]; HH3): 51
Number of differentially expressed probes, Either ([3]; HH3): 86
Fold increase in CYP1A2 activity (CYP1A2): 9.1 fold

CCC1(c2ccccc2)C(=O)NC(=O)NC1=O [PB, phenobarbital]
Number of differentially expressed probes, Down (HepG2 cells [1]): 60
Number of differentially expressed probes, Up (HepG2 cells [1]): 17
Number of differentially expressed probes, Either (HepG2 cells [1]): 77
Number of differentially expressed probes, Down (HepaRG cells [2]): 25
Number of differentially expressed probes, Up (HepaRG cells [2]): 35
Number of differentially expressed probes, Either (HepaRG cells [2]): 60
Number of differentially expressed probes, Down ([3]; HH1): 44
Number of differentially expressed probes, Up ([3]; HH1): 46
Number of differentially expressed probes, Either ([3]; HH1): 90
Number of differentially expressed probes, Down ([3]; HH2): 121
Number of differentially expressed probes, Up ([3]; HH2): 39
Number of differentially expressed probes, Either ([3]; HH2): 160
Number of differentially expressed probes, Down ([3]; HH3): 29
Number of differentially expressed probes, Up ([3]; HH3): 76
Number of differentially expressed probes, Either ([3]; HH3): 105
Effect on CYP2B6 activity (CYP2B6): did not have any effect
Fold increase in CYP3A4 activity (CYP3A4): 36.6 times

CO[C@H]1/C=C/O[C@@]2(C)Oc3c(C)c(O)c4c(O)c(c(/C=N/N5CCN(C)CC5)c(O)c4c3C2=O)NC(=O)/C(C)=C\C=C\[C@H](C)[C@H](O)[C@@H](C)[C@@H](O)[C@@H](C)[C@H](OC(C)=O)[C@@H]1C [RIF, rifampicin]
Number of differentially expressed probes, Down (HepG2 cells [1]): 22
Number of differentially expressed probes, Up (HepG2 cells [1]): 27
Number of differentially expressed probes, Either (HepG2 cells [1]): 49
Number of differentially expressed probes, Down (HepaRG cells [2]): 22
Number of differentially expressed probes, Up (HepaRG cells [2]): 41
Number of differentially expressed probes, Either (HepaRG cells [2]): 63
Number of differentially expressed probes, Down ([3]; HH1): 61
Number of differentially expressed probes, Up ([3]; HH1): 26
Number of differentially expressed probes, Either ([3]; HH1): 87
Number of differentially expressed probes, Down ([3]; HH2): 49
Number of differentially expressed probes, Up ([3]; HH2): 39
Number of differentially expressed probes, Either ([3]; HH2): 88
Number of differentially expressed probes, Down ([3]; HH3): 22
Number of differentially expressed probes, Up ([3]; HH3): 59
Number of differentially expressed probes, Either ([3]; HH3): 81

CCCCc1oc2ccccc2c1C(=O)c1cc(I)c(OCCN(CC)CC)c(I)c1 [amiodarone]
CC50 (in vitro [4]): < 10 µM

CC(=O)Oc1ccccc1C(=O)O [aspirin]
Cytotoxicity class by LC50 (HepG2 cells [5]): non cytotoxic
Cytotoxicity class by LC50 (HepaRG cells [6]): non cytotoxic
Cytotoxicity class by LC50 [7]: non cytotoxic

CCOC(=O)C(C)(C)Oc1ccc(Cl)cc1 [clofibrate]
Cytotoxicity class by LC50 (HepG2 cells [5]): non cytotoxic
Cytotoxicity class by LC50 (HepaRG cells [6]): non cytotoxic
Cytotoxicity class by LC50 [7]: non cytotoxic

C#C[C@]1(O)CC[C@H]2[C@@H]3CCC4=Cc5oncc5C[C@]4(C)[C@H]3CC[C@@]21C [danazol]
Cmax [8]: 160 nM

CC(C)C(=O)Nc1ccc([N+](=O)[O-])c(C(F)(F)F)c1 [flutamide]
Cytotoxicity (in words) [7]: induced cytotoxicity in HH only

CC(=O)N1CCN(c2ccc(OCC3COC(Cn4ccnc4)(c4ccc(Cl)cc4Cl)O3)cc2)CC1 (stereo not shown) [ketoconazole]
Cytotoxicity (in words) [7]: induced cytotoxicity in HH only
Solubility of stock solution [9]: solubility problems occurred at 100 mM

CC(CCc1ccccc1)NCC(O)c1ccc(O)c(C(N)=O)c1 (stereo not shown) [labetalol]
Cytotoxicity (in words) [7]: induced cytotoxicity in HH only

Nc1c2c(nc3ccccc13)CCCC2 [tacrine]
CC50 (in vitro [4]): 50 to 100 µM

CC/C(=C(\c1ccccc1)c1ccc(OCCN(C)C)cc1)c1ccccc1 [tamoxifen]
CC50 (in vitro [10]): 10 to 50 µM
CC50 (in vitro [11]): 10 to 50 µM
CC50 (in vitro [4]): < 10 µM
